According to patent US20240327393A1 (SIRONAX LTD., priority 2021, published 2024):

system: HT-1080 (ATCC, CCL-121) cells; experiment: HT-1080 cell viability assay with ferroptosis inducer RSL3 (Cell Titer-Glo); format: cell-based; conditions: HT-1080 cells treated with RSL3; 3-fold, 10-point dilution, 1.1 μM highest concentration; Table 2; read-out: EC50 (nM), ferroptosis inhibitory activity
Method in brief: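 EC50 was derived by sigmoidal dose-response regression of CellTiter-Glo luminescence viability, expressed relative to untreated wells. Compounds were tested in a ten-point, threefold dilution series (highest 1.1 μM) in the presence of the ferroptosis inducer RSL3. HT-1080 cells had been seeded at 6000 per well and grown overnight first.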

SMILES	EC50 [nM]
CC1CN(c2ccc(Nc3ccc4c(c3)OC(C)C(=O)N4)cc2)CC(C)O1 (stereo not shown) [Compound 144, 7-((4-(2,6-dimethylmorpholino)phenyl)amino)-2-methyl-2H-benzo[b][1,4]oxazin-3(4H)-one]	0.1 to 100

same assay, conditions: Homo sapiens; HT-1080 cells treated with RSL3; 3-fold, 10-point dilution, 1.1 μM highest concentration; Table 2; read-out: EC50 (nM), ferroptosis inhibitory activity

SMILES	EC50 [nM]
Cc1nc2ccc(Nc3ccc(N4CCC(C)CC4)cc3)cc2o1 [Compound 339, 2-methyl-N-(4-(4-methylpiperidin-1-yl)phenyl)benzo[d]oxazol-6-amine]	0.1 to 100
Cn1[nH]c2cc(Nc3ccc(N4CCCCC4)cc3)ccc2c1=O [Compound 257, 2-methyl-6-((4-(piperidin-1-yl)phenyl)amino)-1,2-dihydro-3H-indazol-3-one]	0.1 to 100
COc1cc(N2CCC(C(F)(F)F)CC2)ccc1Nc1ccc2c(c1)n(C)c(=O)n2C [Compound 375, 5-((2-methoxy-4-(4-(trifluoromethyl)piperidin-1-yl)phenyl)amino)-1,3-dimethyl-1,3-dihydro-2H-benzo[d]imidazol-2-one]	0.1 to 100
NCCc1cc2ccc(Nc3ccc(N4CCC(C(F)(F)F)CC4)cc3)cc2oc1=O [Compound 125, 3-(2-aminoethyl)-7-((4-(4-(trifluoromethyl)piperidin-1-yl)phenyl)amino)-2H-chromen-2-one]	0.1 to 100
NC(=O)n1ncc2cc(Nc3ccc(N4CCC(C(F)(F)F)CC4)cc3)ccc21 [Compound 398, 5-((4-(4-(trifluoromethyl)piperidin-1-yl)phenyl)amino)-1H-indazole-1-carboxamide]	0.1 to 100
NC(=O)NCCN1C(=O)COc2cc(Nc3ccc(N4CCC(C(F)(F)F)CC4)cc3)ccc21 [Compound 40, 1-(2-(3-oxo-7-((4-(4-(trifluoromethyl)piperidin-1-yl)phenyl)amino)-2,3-dihydro-4H-benzo[b][1,4]oxazin-4-yl)ethyl)urea]	0.1 to 100
CNCCN1C(=O)COc2cc(Nc3ccc(N4CC(C)OC(C)C4)cc3C)ccc21 (stereo not shown) [Compound 55, 7-((4-(2,6-dimethylmorpholino)-2-methylphenyl)amino)-4-(2-(methylamino)ethyl)-2H-benzo[b][1,4]oxazin-3(4H)-one]	0.1 to 100
Cn1c(=O)c2ccc(Nc3ccc(N4CCC(C(F)(F)F)CC4)cc3)cc2n1C [Compound 224, 1,2-dimethyl-6-((4-(4-(trifluoromethyl)piperidin-1-yl)phenyl)amino)-1,2-dihydro-3H-indazol-3-one]	0.1 to 100
COCCn1c(=O)oc2ccc(Nc3ccc(N4CCC(C(F)(F)F)CC4)cc3)cc21 [Compound 393]	0.1 to 100
CNCCCN1C(=O)COc2cc(Nc3ccc(N4CC(C)OC(C)C4)cc3C)ccc21 (stereo not shown) [Compound 50, 7-((4-(2,6-dimethylmorpholino)-2-methylphenyl)amino)-4-(3-(methylamino)propyl)-2H-benzo[b][1,4]oxazin-3(4H)-one]	0.1 to 100
CCN(CCCOC)c1ccc(Nc2ccc3c(c2)n(C)c(=O)n3C)cc1 [Compound 262, 5-((4-(ethyl(3-methoxypropyl)amino)phenyl)amino)-1,3-dimethyl-1,3-dihydro-2H-benzo[d]imidazol-2-one]	0.1 to 100
CC1(C)c2ccc(Nc3ccc(N4CCC(C(F)(F)F)CC4)cc3)cc2CN1C(=O)C1CC1 [Compound 189, cyclopropyl(1,1-dimethyl-5-((4-(4-(trifluoromethyl)piperidin-1-yl)phenyl)amino)isoindolin-2-yl)methanone]	0.1 to 100
CCCCCc1ccc(Nc2ccc3c(c2)OCC(=O)N3C)cc1 [Compound 6, 4-methyl-7-((4-pentylphenyl)amino)-2H-benzo[b][1,4]oxazin-3(4H)-one]	0.1 to 100
COc1cc(Nc2ccc3c(c2)CN(C)C3=O)ccc1N1CCC(C(F)(F)F)CC1 [Compound 243, 5-((3-methoxy-4-(4-(trifluoromethyl)piperidin-1-yl)phenyl)amino)-2-methylisoindolin-1-one]	0.1 to 100
Cn1cnc2cc(Nc3ccc4c(c3)n(C)c(=O)n4C)ccc21 [Compound 331, 1,3-dimethyl-5-((1-methyl-1H-benzo[d]imidazol-5-yl)amino)-1,3-dihydro-2H-benzo[d]imidazol-2-one]	100 to 1000
COCCn1c(=O)n(C)c2cc(Nc3ccc(N4CCC(C(F)(F)F)CC4)cc3)ccc21 [Compound 354, 1-(2-methoxyethyl)-3-methyl-5-((4-(4-(trifluoromethyl)piperidin-1-yl)phenyl)amino)-1,3-dihydro-2H-benzo[d]imidazol-2-one]	0.1 to 100
Cn1[nH]c2cc(Nc3ccc(N4CCC(C(F)(F)F)CC4)c(F)c3)ccc2c1=O [Compound 219, 6-((3-fluoro-4-(4-(trifluoromethyl)piperidin-1-yl)phenyl)amino)-2-methyl-1,2-dihydro-3H-indazol-3-one]	0.1 to 100

The remaining lines, values ahead:

EC50 [nM]	SMILES
0.1 to 100	Fc1cc(Nc2ccc3c(c2)CN(CC2CC2)C3)cnc1N1CCCCC1 [Compound 196, 2-(cyclopropylmethyl)-N-(5-fluoro-6-(piperidin-1-yl)pyridin-3-yl) isoindolin-5-amine]
0.1 to 100	CC1CCN(c2ccc(Nc3ccc4c(c3)CN(C3CCN(C)CC3)C4=O)cc2)CC1 [Compound 249, 5-((4-(4-methylpiperidin-1-yl)phenyl)amino)-2-(1-methylpiperidin-4-yl) isoindolin-1-one]
0.1 to 100	CCN1Cc2ccc(Nc3ccc(N4CCC(C(F)(F)F)CC4)cc3)cc2C1 [Compound 175, 2-ethyl-N-(4-(4-(trifluoromethyl)piperidin-1-yl)phenyl)isoindolin-5-amine]
0.1 to 100	CC1CN(c2ccc(Nc3ccc4c(c3)OCC(=O)N4CCO)cc2)CC(C)O1 (stereo not shown) [Compound 84, 7-((4-(2,6-dimethylmorpholino)phenyl)amino)-4-(2-hydroxyethyl)-2H-benzo[b][1,4]oxazin-3(4H)-one]
0.1 to 100	CN1Cc2cc(Nc3ccc(N4CCC(C(F)(F)F)CC4)cc3)ccc2C1=N [Compound 291, 1-imino-2-methyl-N-(4-(4-(trifluoromethyl)piperidin-1-yl)phenyl) isoindolin-5-amine]
0.1 to 100	CNCCN1C(=O)COc2cc(Nc3ccc(N4CCC(C(F)(F)F)CC4)cc3)ccc21 [Compound 43, 4-(2-(methylamino)ethyl)-7-((4-(4-(trifluoromethyl)piperidin-1-yl)phenyl)amino)-2H-benzo[b][1,4]oxazin-3(4H)-one]
0.1 to 100	Cn1cc(C(N)=O)c2cc(Nc3ccc(N4CCC(C(F)(F)F)CC4)cc3)ccc21 [Compound 383, 1-methyl-5-((4-(4-(trifluoromethyl)piperidin-1-yl)phenyl)amino)-1H-indole-3-carboxamide]
0.1 to 100	CCC(C)(C)c1ccc(Nc2ccc3c(c2)n(C)c(=O)n3C)cc1 [Compound 411, 1,3-dimethyl-5-((4-(tert-pentyl)phenyl)amino)-1,3-dihydro-2H-benzo[d]imidazol-2-one]
0.1 to 100	Cn1c(=O)oc2cc(Nc3ccc(N4CCC(O)(C(F)(F)F)CC4)cc3)ccc21 [Compound 333, 6-((4-(4-hydroxy-4-(trifluoromethyl)piperidin-1-yl)phenyl)amino)-3-methylbenzo[d]oxazol-2(3H)-one]
0.1 to 100	Cn1c(=O)n(C)c2cc(Nc3ccc(C(F)(F)F)cc3)ccc21 [Compound 404, 1,3-dimethyl-5-((4-(trifluoromethyl)phenyl)amino)-1,3-dihydro-2H-benzo [d]imidazol-2-one]

same assay, conditions: Homo sapiens; HT-1080 cells treated with RSL3; 3-fold, 10-point dilution, 1.1 μM highest concentration; Table 3; read-out: EC50 (nM), ferroptosis inhibitory activity

SMILES	EC50 [nM]
Cc1cc(N2CC(C)N(CC(F)(F)F)C(C)C2)ccc1Nc1ccc2c(c1)OCC(=O)N2 (stereo not shown) [Compound 519, 7-((4-(3,5-dimethyl-4-(2,2,2-trifluoroethyl)piperazin-1-yl)-2-methylphenyl)amino)-2H-benzo[b][1,4]oxazin-3(4H)-one]	0.1 to 100
Cc1cc(N2CCC(C(F)(F)F)CC2)ccc1Nc1ccc2c(c1)CN(C(N)=O)C2 [Compound 545, 5-((2-methyl-4-(4-(trifluoromethyl)piperidin-1-yl)phenyl)amino) isoindoline-2-carboxamide]	0.1 to 100
Cc1cc(Nc2ccc3c(c2)OCC(=O)N3CCO)ccc1N1CC(C)OC(C)C1 (stereo not shown) [Compound 455, 7-((4-(2,6-dimethylmorpholino)-3-methylphenyl)amino)-4-(2-hydroxyethyl)-2H-benzo[b][1,4]oxazin-3(4H)-one]	0.1 to 100
Cc1cc(N2CC(F)(F)C2)ccc1Nc1ccc2c(c1)OCC(=O)N2 [Compound 576, 7-((4-(3,3-difluoroazetidin-1-yl)-2-methylphenyl)amino)-2H-benzo[b][1,4]oxazin-3(4H)-one]	0.1 to 100
CC1CN(c2ccc(Nc3ccc4c(c3)N(C)C(=O)C4(C)C)cc2)CC(C)O1 (stereo not shown) [Compound 449, 6-((4-(2,6-dimethylmorpholino)phenyl)amino)-1,3,3-trimethylindolin-2-one]	0.1 to 100
CCC1CN(c2ccc(Nc3ccc4c(c3)OCC(=O)N4)c(C)n2)CCO1 (stereo not shown) [Compound 498, 7-((6-(2-ethylmorpholino)-2-methylpyridin-3-yl)amino)-2H-benzo[b][1,4]oxazin-3(4H)-one]	0.1 to 100
Cc1cc(N2C[C@@H](C)O[C@@H](C)C2)ccc1Nc1ccc2[nH]cnc2c1 [Compound 493, N-(4-((2R,6S)-2,6-dimethylmorpholino)-2-methylphenyl)-1H-benzo[d] imidazol-5-amine]	0.1 to 100

Further lines, results first:

EC50 [nM]	SMILES
0.1 to 100	Cc1cc(N2CCC(F)(F)C2)ccc1Nc1ccc2c(c1)OCC(=O)N2 [Compound 597, 7-((4-(3,3-difluoropyrrolidin-1-yl)-2-methylphenyl)amino)-2H-benzo[b][1,4]oxazin-3(4H)-one]
0.1 to 100	O=C1COc2cc(Nc3ccc(N4CCC(F)CC4)cc3)cnc2N1 [Compound 554, 7-((4-(4-fluoropiperidin-1-yl)phenyl)amino)-2H-pyrido[3,2-b][1,4]oxazin-3(4H)-one]
